Experimental data as given in ChEMBL document CHEMBL3714729, “Heterocyclic compounds for the inhibition of pask” (2012).

Columns and labels:
[1] = biological target: T1, PAS domain-containing serine/threonine-protein kinase (Homo sapiens, UniProt Q96RG2); experiment: Inhibition of N-terminal GST-tagged human recombinant PASK kinase domain (879 to 1323 residues) expressed in insect cells using MBP protein substrate incubated for 120 mins in presence of [33P]ATP by scintillation counting based radiochemical assay
T1 sequence (Q96RG2 whole entry, the tested form may be a part): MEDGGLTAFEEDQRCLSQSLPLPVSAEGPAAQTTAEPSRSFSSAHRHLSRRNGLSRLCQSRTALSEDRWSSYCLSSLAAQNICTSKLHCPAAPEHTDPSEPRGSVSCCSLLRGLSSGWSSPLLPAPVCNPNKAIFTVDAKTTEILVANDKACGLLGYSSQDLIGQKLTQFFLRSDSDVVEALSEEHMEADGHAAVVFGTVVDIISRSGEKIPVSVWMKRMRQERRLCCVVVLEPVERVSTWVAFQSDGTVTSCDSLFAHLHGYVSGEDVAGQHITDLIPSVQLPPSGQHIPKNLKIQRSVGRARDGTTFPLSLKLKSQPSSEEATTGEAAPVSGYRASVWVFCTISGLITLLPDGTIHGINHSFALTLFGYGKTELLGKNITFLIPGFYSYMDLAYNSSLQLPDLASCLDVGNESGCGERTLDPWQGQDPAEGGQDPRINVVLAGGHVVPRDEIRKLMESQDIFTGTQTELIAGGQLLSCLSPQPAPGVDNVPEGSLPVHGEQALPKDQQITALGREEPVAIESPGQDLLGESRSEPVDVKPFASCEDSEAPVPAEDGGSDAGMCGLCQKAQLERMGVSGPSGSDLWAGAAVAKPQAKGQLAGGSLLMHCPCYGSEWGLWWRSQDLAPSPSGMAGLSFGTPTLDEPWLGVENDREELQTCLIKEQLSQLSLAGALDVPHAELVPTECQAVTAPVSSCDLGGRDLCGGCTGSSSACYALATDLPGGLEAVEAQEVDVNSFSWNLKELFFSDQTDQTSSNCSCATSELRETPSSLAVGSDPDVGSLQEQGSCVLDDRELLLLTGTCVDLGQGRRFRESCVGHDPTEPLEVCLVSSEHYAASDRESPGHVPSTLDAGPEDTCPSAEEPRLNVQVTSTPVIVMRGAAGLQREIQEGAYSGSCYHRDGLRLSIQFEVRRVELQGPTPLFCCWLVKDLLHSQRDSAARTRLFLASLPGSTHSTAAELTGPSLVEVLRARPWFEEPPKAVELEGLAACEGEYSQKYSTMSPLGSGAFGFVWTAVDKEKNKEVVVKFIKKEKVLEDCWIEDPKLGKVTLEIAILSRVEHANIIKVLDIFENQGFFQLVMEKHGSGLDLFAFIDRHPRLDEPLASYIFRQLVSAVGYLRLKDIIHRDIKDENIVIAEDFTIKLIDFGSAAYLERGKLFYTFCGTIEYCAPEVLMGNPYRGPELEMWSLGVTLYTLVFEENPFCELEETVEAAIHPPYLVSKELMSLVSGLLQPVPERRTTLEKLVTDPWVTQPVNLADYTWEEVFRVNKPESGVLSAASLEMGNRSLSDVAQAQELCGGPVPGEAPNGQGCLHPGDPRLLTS

[2] = biological target: Casein kinase II subunit alpha' (Homo sapiens, UniProt P19784); experiment: Inhibition of GST-tagged full-length purified human CK2a2 using RRRDDDSDDD substrate incubated for 120 mins in presence of [33P]ATP by scintillation counting based biochemical assay
Chain of Casein kinase II subunit alpha' (P19784 whole entry, the tested form may be a part): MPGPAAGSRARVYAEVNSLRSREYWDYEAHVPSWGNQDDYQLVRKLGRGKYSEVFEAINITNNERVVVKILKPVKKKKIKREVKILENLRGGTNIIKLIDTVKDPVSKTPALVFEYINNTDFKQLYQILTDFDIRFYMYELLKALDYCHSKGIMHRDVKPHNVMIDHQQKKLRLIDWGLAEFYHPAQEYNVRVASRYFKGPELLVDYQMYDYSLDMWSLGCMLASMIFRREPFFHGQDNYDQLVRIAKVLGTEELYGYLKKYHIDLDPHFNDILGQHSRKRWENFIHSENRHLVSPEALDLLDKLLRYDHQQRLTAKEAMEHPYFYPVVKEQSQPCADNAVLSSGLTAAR

[3] = biological target: T1, PAS domain-containing serine/threonine-protein kinase; experiment: Inhibition of human recombinant PASK using Ulight-peptide substrate incubated for 2 hrs by TR-FRET assay

| SMILES | IC50 [1] | IC50 [2] | IC50 [3] |
| --- | --- | --- | --- |
| O=c1cc(-c2ccc3c(c2)CCO3)[nH]c2c(-c3ccccc3)cnn12 | ≤ 10 µM | ≤ 10 µM | ≤ 10 µM |
| O=c1cc(-c2ccc(F)cc2)[nH]c2c(-c3ccccn3)cnn12 | ≤ 10 µM | ≤ 10 µM | ≤ 10 µM |
| Nc1nn2c(=O)cc(-c3ccc(Cl)cc3F)[nH]c2c1-c1ccccn1 | ≤ 10 µM | ≤ 10 µM | ≤ 10 µM |
| CCCc1c(C)nn2c(=O)cc(-c3ccc(OC)cc3)[nH]c12 | ≤ 10 µM | ≥ 10 µM | ≤ 10 µM |
| O=c1cc(-c2ccc3occc3c2)[nH]c2c(-c3ccccc3)cnn12 | ≤ 10 µM | ≤ 10 µM | ≤ 10 µM |
| CC(=O)Nc1nn2c(=O)cc(-c3ccc4c(cnn4C)c3)[nH]c2c1-c1ccccn1 | ≤ 10 µM | ≤ 10 µM | ≤ 10 µM |
| O=c1cc(-c2ccc3[nH]ncc3c2)[nH]c2c(-c3ccccn3)cnn12 | ≤ 10 µM | ≤ 10 µM | ≤ 10 µM |
| O=c1cc(-c2ccc3c(c2)CCO3)[nH]c2c(-c3cccnc3)cnn12 | ≤ 10 µM | ≤ 10 µM | ≤ 10 µM |
| O=c1cc(-c2ccc3c(c2)OC(F)(F)O3)[nH]c2c(-c3ccccn3)cnn12 | ≤ 10 µM | ≤ 10 µM | ≤ 10 µM |
| O=c1cc(-c2ccc3c(c2)OCCO3)[nH]c2c(-c3ccc(N4CCCCC4)nc3)cnn12 |  | ≤ 10 µM | ≤ 10 µM |
| O=c1cc(-c2ccc3c(c2)CCO3)[nH]c2c(-c3ccccn3)c(O)nn12 | ≤ 10 µM | ≥ 10 µM | ≤ 10 µM |
| O=c1cc(-c2cc3ccccc3o2)[nH]c2c(-c3ccccn3)cnn12 | ≤ 10 µM | ≤ 10 µM | ≤ 10 µM |
| CCCNC(=O)c1c(N)nn2c(=O)cc(-c3ccc4[nH]ncc4c3)[nH]c12 | ≤ 10 µM | ≤ 10 µM | ≤ 10 µM |
| O=C(NCc1ccccc1)c1cnn2c(=O)cc(-c3ccc4c(c3)OCCO4)[nH]c12 | ≤ 10 µM |  | ≤ 10 µM |
| NC(=O)c1cnn2c(=O)cc(-c3ccc4c(c3)OCCO4)[nH]c12 | ≤ 10 µM | ≤ 10 µM | ≤ 10 µM |
| Nc1nn2c(=O)cc(-c3ccc(Cl)cc3)[nH]c2c1-c1ccccc1 | ≤ 10 µM | ≤ 10 µM | ≤ 10 µM |
| Cc1nn2c(=O)cc(-c3ccc4c(c3)OCO4)[nH]c2c1Cc1ccc(Cl)cc1 | ≤ 10 µM | ≤ 10 µM | ≤ 10 µM |
| CCCNC(=O)c1c(N)nn2c(=O)cc(-c3ccc4c(cnn4C)c3)[nH]c12 | ≤ 10 µM | ≤ 10 µM | ≤ 10 µM |
| O=c1cc(-c2ccc3cc[nH]c3c2)[nH]c2c(-c3ccccc3)cnn12 | ≤ 10 µM | ≤ 10 µM | ≤ 10 µM |
| O=c1cc(-c2ccc3c(c2)OCO3)[nH]c2c(-c3cccnc3)c(O)nn12 | ≤ 10 µM | ≤ 10 µM | ≤ 10 µM |
| Cc1nn2c(=O)cc(-c3ccc4c(c3)OCO4)[nH]c2c1Cc1cccc(Cl)c1 | ≤ 10 µM | ≤ 10 µM | ≤ 10 µM |
| Nc1nn2c(=O)cc(-c3ccc(Cl)cc3)[nH]c2c1-c1ccccn1 | ≤ 10 µM | ≤ 10 µM | ≤ 10 µM |
| Nc1nn2c(=O)cc(-c3ccc4c(c3)OCO4)[nH]c2c1-c1ccccn1 | ≤ 10 µM | ≤ 10 µM | ≤ 10 µM |
| CCCNC(=O)c1c(N)nn2c(=O)cc(-c3ccc4[nH]nnc4c3)[nH]c12 | ≤ 10 µM | ≤ 10 µM | ≤ 10 µM |

| SMILES | IC50 [1] | IC50 [2] | IC50 [3] |
| --- | --- | --- | --- |
| Nc1nn2c(=O)cc(-c3ccc4[nH]nnc4c3)[nH]c2c1-c1ccccc1 | ≤ 10 µM | ≤ 10 µM | ≤ 10 µM |
| O=c1cc(-c2ccc3occc3c2)[nH]c2c(-c3ccccc3)c(O)nn12 | ≤ 10 µM | ≤ 10 µM | ≤ 10 µM |
| Nc1nn2c(=O)cc(-c3ccc4[nH]nnc4c3)[nH]c2c1-c1ccccn1 | ≤ 10 µM | ≤ 10 µM | ≤ 10 µM |
| N#Cc1ccc(-c2cc(=O)n3ncc(-c4ccccn4)c3[nH]2)cc1 | ≤ 10 µM | ≥ 10 µM | ≤ 10 µM |
| Nc1nn2c(=O)cc(-c3ccc4c(c3)OCCO4)[nH]c2c1-c1ccccc1 | ≤ 10 µM | ≤ 10 µM | ≤ 10 µM |
| Cc1nn2c(=O)cc(-c3ccc4ncccc4c3)[nH]c2c1Cc1ccccc1 | ≤ 10 µM | ≤ 10 µM | ≤ 10 µM |
| Cc1nn2c(=O)cc(-c3cccnc3)[nH]c2c1-c1ccc(F)cc1 | ≤ 10 µM | ≤ 10 µM |  |
| O=c1cc(-c2ccc3[nH]nnc3c2)[nH]c2c(-c3ccccn3)c(O)nn12 | ≤ 10 µM | ≤ 10 µM | ≤ 10 µM |
| O=c1cc(-c2ccc3occc3c2)[nH]c2c(-c3ccccn3)c(O)nn12 | ≤ 10 µM | ≤ 10 µM | ≤ 10 µM |
| CN(Cc1ccccc1)C(=O)c1cnn2c(=O)cc(-c3ccc4c(c3)OCCO4)[nH]c12 | ≤ 10 µM | ≤ 10 µM | ≤ 10 µM |
| COc1ccc2c(c1)CCc1c-2[nH]c2c(-c3ccccn3)cnn2c1=O | ≤ 10 µM | ≤ 10 µM | ≤ 10 µM |
| O=C(c1cnn2c(=O)cc(-c3ccc4c(c3)OCCO4)[nH]c12)N1CCOCC1 | ≤ 10 µM |  | ≤ 10 µM |
| O=c1cc(-c2ccc3c(c2)OCCO3)[nH]c2c(-c3ccc(N4CCCC4)nc3)cnn12 | ≤ 10 µM | ≤ 10 µM | ≤ 10 µM |
| CCNc1nn2c(=O)cc(-c3ccc4c(c3)OCO4)[nH]c2c1-c1ccccn1 | ≤ 10 µM | ≤ 10 µM | ≤ 10 µM |
| O=c1cc(-c2ccc3c(c2)OCCO3)[nH]c2c(-c3cccc(F)c3)cnn12 |  | ≤ 10 µM | ≤ 10 µM |
| COc1cccc(-c2cnn3c(=O)cc(-c4ccc5c(c4)OCCO5)[nH]c23)c1 | ≤ 10 µM | ≤ 10 µM | ≤ 10 µM |
| Cc1nn2c(=O)cc(-c3ccc4c(c3)OCCO4)[nH]c2c1-c1ccc(F)cc1 | ≤ 10 µM | ≤ 10 µM | ≤ 10 µM |
| COc1c(-c2cc(=O)n3nc(C)c(-c4ccccn4)c3[nH]2)ccc2c1OCO2 | ≤ 10 µM | ≤ 10 µM | ≤ 10 µM |
| O=c1cc(-c2ccc3c(c2)OCO3)[nH]c2c(Cc3ccccc3)cnn12 | ≤ 10 µM | ≤ 10 µM | ≤ 10 µM |
| COc1c(-c2cc(=O)n3nc(N)c(-c4ccccn4)c3[nH]2)ccc2c1OCO2 | ≤ 10 µM | ≤ 10 µM | ≤ 10 µM |
| N#Cc1cnn2c(=O)cc(-c3ccc4c(c3)OCCO4)[nH]c12 | ≤ 10 µM | ≤ 10 µM | ≤ 10 µM |
| O=c1cc(-c2ccc(Cl)cc2)[nH]c2c(-c3ccccn3)cnn12 | ≤ 10 µM |  | ≤ 10 µM |
| O=C(NCc1ccccc1)c1cnn2c(=O)cc(-c3ccc(Cl)cc3)[nH]c12 | ≤ 10 µM | ≤ 10 µM | ≤ 10 µM |
| Cc1nn2c(=O)cc(-c3ccc4c(c3)OCO4)[nH]c2c1-c1ccccn1 |  | ≤ 10 µM |  |

| SMILES | IC50 [1] | IC50 [2] | IC50 [3] |
| --- | --- | --- | --- |
| O=c1cc(-c2ccc3occc3c2)[nH]c2c(-c3cccnc3)c(O)nn12 | ≤ 10 µM | ≤ 10 µM | ≤ 10 µM |
| O=c1cc(-c2ccc3c(c2)OCCO3)[nH]c2c(-c3ccccc3)c(O)nn12 | ≤ 10 µM |  | ≤ 10 µM |
| Cc1nn2c(=O)cc(-c3ccc4c(c3)OCO4)[nH]c2c1Cc1ccccn1 | ≤ 10 µM | ≤ 10 µM | ≤ 10 µM |
| O=c1cc(-c2ccc3[nH]nnc3c2)[nH]c2c(-c3cccnc3)cnn12 | ≤ 10 µM | ≤ 10 µM | ≤ 10 µM |
| O=c1cc(-c2ccc(Cl)cc2)[nH]c2c(-c3ccccn3)c(O)nn12 | ≤ 10 µM | ≥ 10 µM | ≤ 10 µM |
| Cc1nn2c(=O)cc(-c3ccc(C(N)=O)cc3)[nH]c2c1Cc1ccc(Cl)cc1 |  | ≥ 10 µM |  |
| O=c1cc(-c2cc3nn[nH]c3cc2F)[nH]c2c(-c3ccccn3)cnn12 | ≤ 10 µM | ≤ 10 µM | ≤ 10 µM |
| O=c1cc(-c2ccc3c(c2)CCO3)[nH]c2c(-c3ccccn3)cnn12 | ≤ 10 µM | ≤ 10 µM | ≤ 10 µM |
| CCc1nn2c(=O)cc(-c3ccc4c(c3)OCO4)[nH]c2c1-c1ccccn1 | ≤ 10 µM | ≤ 10 µM | ≤ 10 µM |
| COc1ccc(-c2cc(=O)n3nc(O)c(-c4ccccn4)c3[nH]2)c(OC)c1 | ≤ 10 µM | ≥ 10 µM | ≤ 10 µM |
| O=c1cc(-c2ccc(Cl)cc2)[nH]c2c(-c3cccnc3)c(O)nn12 | ≤ 10 µM | ≥ 10 µM | ≤ 10 µM |
| Cc1nn2c(=O)cc(-c3ccc4c(c3)OCCO4)[nH]c2c1-c1ccccn1 |  | ≤ 10 µM |  |
| COc1ccc(-c2cc(=O)n3ncc(-c4ccccn4)c3[nH]2)c(OC)c1 | ≤ 10 µM |  | ≤ 10 µM |
| O=c1cc(-c2ccccn2)[nH]c2c(-c3ccc(F)cc3)cnn12 | ≤ 10 µM | ≤ 10 µM |  |
| Cc1nn2c(=O)cc(-c3ccccc3)[nH]c2c1Cc1ccccc1 |  | ≥ 10 µM |  |
| O=c1cc(-c2ccc3c(c2)OCCO3)[nH]c2c(-c3cccnc3)cnn12 |  | ≤ 10 µM |  |
| COc1ccc(-c2cc(=O)n3nc(C)c(Cc4ccccc4Cl)c3[nH]2)cc1 |  | ≥ 10 µM | ≤ 10 µM |
| CN1CCN(C(=O)c2cnn3c(=O)cc(-c4ccc5c(c4)OCCO5)[nH]c23)CC1 | ≤ 10 µM |  | ≤ 10 µM |
| Cc1nn2c(=O)cc(-c3ccc4c(c3)OCO4)[nH]c2c1-c1ccccc1 |  | ≤ 10 µM |  |
| O=c1cc(-c2ccc3c(c2)OCO3)[nH]c2c(-c3ccccn3)cnn12 |  | ≤ 10 µM |  |
| Cc1nn2c(=O)cc(-c3ccc(OC(C)C)cc3)[nH]c2c1Cc1ccc(Cl)cc1 |  | ≥ 10 µM |  |
| Cc1nn2c(=O)cc(-c3ccccc3)[nH]c2c1Cc1ccc(Cl)cc1 |  | ≤ 10 µM |  |
| Cc1nn2c(=O)cc(-c3ccc4cc[nH]c4c3)[nH]c2c1Cc1ccccc1 |  | ≥ 10 µM |  |
| O=c1cc(-c2ccc3c(c2)OCCO3)[nH]c2c(-c3ccccn3)c(O)nn12 | ≤ 10 µM |  | ≤ 10 µM |
